For 22 molecules, EC50 and Ki results are on record in patent US9050346B2, “Bromodomain inhibitors” (AbbVie Inc., priority 2013, dated 2015).

Test [1] concerns breast cancer cell line MX-1. As to the kind of experiment: MX-1 cell line proliferation assay (3-day, Cell Titer Glo). The test is classed as cell-based. To be noted: Homo sapiens, MX1, MX-1 cells, 72 h, top concentration 3 μM, read-out: Cellular proliferation: EC50. As for the experimental part: The impact of compounds of the Examples on cancer cell proliferation was determined using the breast cancer cell line MX-1 (ATCC) in a 3-day proliferation assay and the data are reported in Table 1. MX-1 cells were maintained in RPMI 1640 medium (Sigma) supplemented with 10% FBS at 37 C.° and an atmosphere of 5% CO2. For compound testing, MX-1 cells were plated in 96-well black bottom plates at a density of 5000 cells/well in 90 μL of culture media and incubated at 37° overnight to allow cell adhesion and spreading. Compound dilution series were prepared in DMSO via a 3-fold serial dilution from 3 mM to 0.1 μM. The DMSO dilution series were then diluted 1:100 in phosphate buffered saline, and 10 μL of the resulted solution were added to the appropriate wells of the MX-1 cell plate. The final compound concentrations in the wells were 3, 1, 0.3, 0.1, 0.03, 0.01, 0.003, 0.001, 0.0003 and 0.0001 μM.
Luminescence readings from the Cell Titer Glo assay were normalized to the DMSO treated cells and analyzed using the GraphPad Prism software with sigmoidal curve fitting to obtain EC50s. The minimum significant ratio (MSR) was determined to evaluate assay reproducibility (Eastwood et al., (2006) J Biomol Screen, 11: 253-261).

The next test has as its target T1, BRD4 (BDI_K57-E168) (Homo sapiens, UniProt O60885).
T1 construct: BD1: amino acids K57-E168; made in house
In words: TR-FRET bromodomain binding assay, BRD4 first bromodomain. Particulars: His-tagged BD1, 100 nM Alexa647 probe; Ki calculated from IC50; dilution protocol A-G. The essentials:
(§1)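 His-tagged BRD4 BD1 (K57-E168) or BD2 (8 nM) with Eu-anti-His antibody and Alexa647-labeled BET-inhibitor probe (100 nM for BDI, 30 nM for BDII), pH 6.0 phosphate buffer, 2% DMSO, 1 h at room temperature. TR-FRET (Ex 340, Em 495/520); IC50 by 4-parameter fit, converted to Ki using probe Kd and concentration.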

A further test has as its target T2, BRD4 (BDII_E352-M457) (Homo sapiens, UniProt O60885).
T2 construct: made in house
As to the kind of experiment: TR-FRET bromodomain binding assay, BRD4 second bromodomain. In a few lines:
as §1

The Ki is a measure of affinity in units of concentration, obtained from inhibition or displacement. Consider `Cc1[nH]c(-c2ccccc2Oc2ccccc2)c2cc(-c3nc(-c4cccnc4)no3)[nH]c(=O)c12` [Example 60, 3-methyl-1-(2-phenoxyphenyl)-6-(3-(pyridin-3-yl)-1,2,4-oxadiazol-5-yl)-2H-pyrrolo[3,4-c]pyridin-4(5H)-one], for which the EC50 in test [1] was 111 nM. Also, the results for the Ki at BRD4 (BDI_K57-E168) and on BRD4 (BDII_E352-M457) were 13 nM and 116 nM, respectively.
Take `Cc1[nH]c(-c2cc(S(C)(=O)=O)ccc2OCC2CC2)c2c1C(=O)NCC2` [Example 96, 1-[2-(cyclopropylmethoxy)-5-(methylsulfonyl)phenyl]-3-methyl-2,5,6,7-tetrahydro-4H-pyrrolo[3,4-c]pyridin-4-one]: in test [1], the EC50 was determined as 407 nM. Besides, the inhibition constant (Ki) is 34.3 nM on BRD4 (BDI_K57-E168) and 461 nM on BRD4 (BDII_E352-M457).
For `Cc1[nH]c(-c2cc(Cl)ccc2Oc2ccc(F)cc2F)c2cc(C(N)=O)[nH]c(=O)c12` [Example 32, 1-[5-chloro-2-(2,4-difluorophenoxy)phenyl]-3-methyl-4-oxo-4,5-dihydro-2H-pyrrolo[3,4-c]pyridine-6-carboxamide], the EC50 in test [1] came out at 102 nM. The Ki was 22.8 nM at BRD4 (BDI_K57-E168) and 158 nM on BRD4 (BDII_E352-M457).
Take `Cc1[nH]c(-c2ccccc2Oc2ccccc2)c2cc(C(=O)NCc3ccco3)[nH]c(=O)c12` [Example 31, N-(furan-2-ylmethyl)-3-methyl-4-oxo-1-(2-phenoxyphenyl)-4,5-dihydro-2H-pyrrolo[3,4-c]pyridine-6-carboxamide]: in test [1], the EC50 worked out at 182 nM. Further, the values for the Ki at BRD4 (BDI_K57-E168) and on BRD4 (BDII_E352-M457) were 87.6 nM and 155 nM, respectively.
Take `Cc1[nH]c(-c2ccccc2Oc2ccccc2)c2cc(C(=O)N[C@@H]3CCN(C)C3)[nH]c(=O)c12` [Example 51, (R)-3-methyl-N-(1-methylpyrrolidin-3-yl)-4-oxo-1-(2-phenoxyphenyl)-4,5-dihydro-2H-pyrrolo[3,4-c]pyridine-6-carboxamide]: the EC50 in test [1] came out at 117 nM. Moreover, the inhibitory constant (Ki) was 6.13 nM on BRD4 (BDI_K57-E168) and 190 nM on BRD4 (BDII_E352-M457).
On the same counts, the results for `CCOC(=O)c1cc2c(-c3cc(NS(=O)(=O)CC)ccc3Oc3ccc(F)cc3F)[nH]c(C)c2c(=O)[nH]1` [Example 10, ethyl 1-(2-(2,4-difluorophenoxy)-5-(ethylsulfonamido)phenyl)-3-methyl-4-oxo-4,5-dihydro-2H-pyrrolo[3,4-c]pyridine-6-carboxylate] are 57.4 nM, 1.46 nM and 8.61 nM.
As for `Cc1[nH]c(-c2cc(N)ccc2Oc2ccc(F)cc2F)c2c1C(=O)NC(C)C2` (stereo not drawn) [Example 101, 1-[5-amino-2-(2,4-difluorophenoxy)phenyl]-3,6-dimethyl-2,5,6,7-tetrahydro-4H-pyrrolo[3,4-c]pyridin-4-one], the EC50 in test [1] is 45.8 nM. Also, the Ki is 8.42 nM on BRD4 (BDI_K57-E168) and 11.5 nM at BRD4 (BDII_E352-M457).
On the same counts, the results for `Cc1[nH]c(-c2ccccc2Oc2ccccc2)c2cc(-c3nc(Cc4cccnc4)no3)[nH]c(=O)c12` [Example 66, 3-methyl-1-(2-phenoxyphenyl)-6-(3-(pyridin-3-ylmethyl)-1,2,4-oxadiazol-5-yl)-2H-pyrrolo[3,4-c]pyridin-4(5H)-one] are 81 nM, 9.31 nM and 151 nM.
As for `CCS(=O)(=O)Nc1ccc(Oc2ccccc2)c(-c2[nH]c(C)c3c(=O)[nH]ncc23)c1` [Example 75, N-[3-(7-methyl-1-oxo-2,6-dihydro-1H-pyrrolo[3,4-d]pyridazin-5-yl)-4-phenoxyphenyl]ethanesulfonamide], in test [1], the EC50 worked out at 51.8 nM. Besides, the Ki is 3.66 nM at BRD4 (BDI_K57-E168) and 9.47 nM on BRD4 (BDII_E352-M457).
On the same counts, the results for `COCc1cc2c(-c3ccccc3Oc3ccccc3)[nH]c(C)c2c(=O)[nH]1` [Example 44, 6-(methoxymethyl)-3-methyl-1-(2-phenoxyphenyl)-2,5-dihydro-4H-pyrrolo[3,4-c]pyridin-4-one] are 233 nM, 66.7 nM and 424 nM.
Turning to `Cc1[nH]c(-c2ccccc2Oc2ccccc2)c2cc(C(=O)N3CCN(C)CC3)[nH]c(=O)c12` [Example 16, 3-methyl-6-(4-methylpiperazine-1-carbonyl)-1-(2-phenoxyphenyl)-2H-pyrrolo[3,4-c]pyridin-4(5H)-one], in test [1], the EC50 turned out to be 616 nM. For the same molecule, the Ki was 32.7 nM on BRD4 (BDI_K57-E168) and 170 nM at BRD4 (BDII_E352-M457).
In the case of `Cc1noc(-c2cc3c(-c4ccccc4Oc4ccccc4)[nH]c(C)c3c(=O)[nH]2)n1` [Example 61, 3-methyl-6-(3-methyl-1,2,4-oxadiazol-5-yl)-1-(2-phenoxyphenyl)-2H-pyrrolo[3,4-c]pyridin-4(5H)-one], the EC50 in test [1] was 159 nM. In addition, the Ki is 10 nM at BRD4 (BDI_K57-E168) and 138 nM at BRD4 (BDII_E352-M457).
Take `Cc1[nH]c(-c2ccccc2Oc2ccccc2)c2cc(C(=O)NCC3CNCC3(F)F)[nH]c(=O)c12` (stereo not drawn) [Example 59, N-[(4,4-difluoropyrrolidin-3-yl)methyl]-3-methyl-4-oxo-1-(2-phenoxyphenyl)-4,5-dihydro-2H-pyrrolo[3,4-c]pyridine-6-carboxamide]: the EC50 in test [1] turned out to be 223 nM. Also, the Ki on BRD4 (BDI_K57-E168) is 3.67 nM; at BRD4 (BDII_E352-M457), 59.7 nM.
For `Cc1[nH]c(-c2cc(F)ccc2OCC2CC2)c2cc(C(N)=O)[nH]c(=O)c12` [Example 70, 1-[2-(cyclopropylmethoxy)-5-fluorophenyl]-3-methyl-4-oxo-4,5-dihydro-2H-pyrrolo[3,4-c]pyridine-6-carboxamide], in test [1], the EC50 was over 3000 nM. The inhibition constant (Ki) is 82.7 nM on BRD4 (BDI_K57-E168) and 356 nM on BRD4 (BDII_E352-M457).
On the same counts, the results for `Cc1[nH]c(-c2ccccc2Oc2ccccc2)c2cc(-c3nc(-c4cnccn4)no3)[nH]c(=O)c12` [Example 65, 3-methyl-1-(2-phenoxyphenyl)-6-(3-(pyrazin-2-yl)-1,2,4-oxadiazol-5-yl)-2H-pyrrolo[3,4-c]pyridin-4(5H)-one] are 71.1 nM, 7.57 nM and 28.5 nM.
Turning to `Cc1[nH]c(-c2ccccc2Oc2ccccc2)c2cc(C(=O)NC[C@H]3CCNC3)[nH]c(=O)c12` [Example 58, (S)-3-methyl-4-oxo-1-(2-phenoxyphenyl)-N-(pyrrolidin-3-ylmethyl)-4,5-dihydro-2H-pyrrolo[3,4-c]pyridine-6-carboxamide], the EC50 in test [1] is 329 nM. For the same molecule, the Ki was 2.02 nM at BRD4 (BDI_K57-E168) and 16 nM at BRD4 (BDII_E352-M457).
Turning to `CO[C@H]1C[C@H](NC(=O)c2cc3c(-c4ccccc4Oc4ccccc4)[nH]c(C)c3c(=O)[nH]2)C1` [Example 50, N-(trans-3-methoxycyclobutyl)-3-methyl-4-oxo-1-(2-phenoxyphenyl)-4,5-dihydro-2H-pyrrolo[3,4-c]pyridine-6-carboxamide], the EC50 in test [1] is 210 nM. In addition, the Ki was 30.1 nM on BRD4 (BDI_K57-E168) and 11.3 nM at BRD4 (BDII_E352-M457).
On the same counts, the results for `Cc1[nH]c(-c2ccccc2Oc2ccccc2)c2cc(C(N)=O)[nH]c(=O)c12` [Example 11, 3-methyl-4-oxo-1-(2-phenoxyphenyl)-4,5-dihydro-2H-pyrrolo[3,4-c]pyridine-6-carboxamide] are 31.7 nM, 4.31 nM and 11.9 nM.
On to `CCOC(=O)c1nc2c(-c3ccccc3Oc3ccccc3)[nH]c(C)c2c(=O)[nH]1` [Example 87, ethyl 5-methyl-4-oxo-7-(2-phenoxyphenyl)-4,6-dihydro-3H-pyrrolo[3,4-d]pyrimidine-2-carboxylate], for which the EC50 in test [1] was over 3000 nM. The results for the Ki on BRD4 (BDI_K57-E168) and on BRD4 (BDII_E352-M457) were 82.3 nM and 1180 nM, respectively.
Take `Cc1[nH]c(-c2ccccc2Oc2ccccc2)c2cc(C(=O)Nc3nccs3)[nH]c(=O)c12` [Example 26, 3-methyl-4-oxo-1-(2-phenoxyphenyl)-N-(thiazol-2-yl)-4,5-dihydro-2H-pyrrolo[3,4-c]pyridine-6-carboxamide]: the EC50 in test [1] is 442 nM. The inhibitory constant (Ki) on BRD4 (BDI_K57-E168) is 56.8 nM; at BRD4 (BDII_E352-M457) it was 118 nM.
On the same counts, the results for `CCOC(=O)c1cc2c(-c3cc(NS(=O)(=O)CC)ccc3Oc3ccccc3)[nH]c(C)c2c(=O)[nH]1` [Example 6, ethyl 1-(5-(ethylsulfonamido)-2-phenoxyphenyl)-3-methyl-4-oxo-4,5-dihydro-2H-pyrrolo[3,4-c]pyridine-6-carboxylate] are 32.9 nM, 1.23 nM and 3.31 nM.
For `Cc1[nH]c(-c2cc(S(C)(=O)=O)ccc2Oc2ccc(F)cc2F)c2cc(C(N)=O)[nH]c(=O)c12` [Example 42, 1-[2-(2,4-difluorophenoxy)-5-(methylsulfonyl)phenyl]-3-methyl-4-oxo-4,5-dihydro-2H-pyrrolo[3,4-c]pyridine-6-carboxamide], the EC50 in test [1] was over 3000 nM. Further, the Ki is 22.4 nM at BRD4 (BDI_K57-E168) and 56.9 nM on BRD4 (BDII_E352-M457).
